Legend:
[1] = tested on: Alcaligenes faecalis ATCC 213; test: In vitro antibacterial spectrum profile, zone of inhibition; format: cell-based; conditions: ATCC213, 182 μg/ml, read-out: Inhib. Zone Diam.
Procedure: (§1) The test to determine the antibiotic spectrum profile is carried out by application of a 0.015 ml. droplet on the surface of a 100×15 mm. petri plate containing 5 ml. of seeded nutrient agar and 0.2% yeast extract. The antibiotic 890A1 is tested at a level of 33 μg/ml. and the antibiotic 890A3 is tested at a level of 182 μg/ml.

Bacillus sp. MB-633 = test: as above; format: cell-based; conditions: SP.MB633, 182 μg/ml, read-out: Inhib. Zone Diam.
Procedure: as §1

[2] = tested on: Corynebacterium pseudoidph. ATCC 9742; test: as above; format: cell-based; conditions: ATCC9742, 182 μg/ml, read-out: Inhib. Zone Diam.
Procedure: as §1

[3] = tested on: Proteus vulgaris ATCC 21100; test: as above; format: cell-based; conditions: ATCC21100, 182 μg/ml, read-out: Inhib. Zone Diam.
Procedure: as §1

Proteus vulgaris MB-1012 = test: as above; format: cell-based; conditions: MB1012, 182 μg/ml, read-out: Inhib. Zone Diam.
[4] = tested on: Pseudomonas aeruginosa MB-979; test: as above; format: cell-based; conditions: MB979, 182 μg/ml, read-out: Inhib. Zone Diam.
[5] = tested on: Serratia marcescens ATCC 990; test: as above; format: cell-based; conditions: ATCC990, 182 μg/ml, read-out: Inhib. Zone Diam.
[6] = tested on: Staphlococcus aureus ATCC 6538 P; test: as above; format: cell-based; conditions: read-out: Inhib. Zone Diam.
[7] = tested on: Bacillus subtilis ATCC 6633; test: as above; format: cell-based; conditions: ATCC6633, 182 μg/ml, read-out: Inhib. Zone Diam.
Sarcina lutea ATCC 9341 = test: as above; format: cell-based; conditions: Micrococcus luteus, ATCC9341; 182 μg/ml; read-out: Inhib. Zone Diam.
[8] = tested on: Staphylococcus aureus MB-698; test: as above; format: cell-based; conditions: MB698, read-out: Inhib. Zone Diam.
[9] = tested on: Streptococcus faecalis MB-753; test: as above; format: cell-based; conditions: Enterococcus faecalis, MB753; 182 μg/ml; read-out: Inhib. Zone Diam.
[10] = tested on: Brucella bronchiseptica ATCC 4617; test: microbe, parasite or virus in culture; format: cell-based; conditions: Bordetella bronchiseptica, ATCC4617, read-out: Inhib. Zone Diam.
[11] = tested on: Salmonella gallinarum MB-1287; test: In vitro antibacterial spectrum profile, zone of inhibition; format: cell-based; conditions: Salmonella enterica, 182 μg/ml, read-out: Inhib. Zone Diam.
[12] = tested on: Vibrio percolans ATCC 8461; test: as above; format: cell-based; conditions: Comamonas terrigena, ATCC8461; 182 μg/ml; read-out: Inhib. Zone Diam.
[13] = tested on: Xanthomonas vesicatoria MB-815; test: as above; format: cell-based; conditions: MB815, 182 μg/ml, read-out: Inhib. Zone Diam.
Escherichia coli MB-1418 = test: as above; format: cell-based; conditions: MB1418, 182 μg/ml, read-out: Inhib. Zone Diam.
[14] = tested on: Pseudomonas stutzeri ATCC 11607; test: as above; format: cell-based; conditions: Stutzerimonas stutzeri, ATCC11607; 182 μg/ml; read-out: Inhib. Zone Diam.
[15] = tested on: Klebsiella pneumoniae MB-1264; test: as above; format: cell-based; conditions: MB1264, 182 μg/ml, read-out: Inhib. Zone Diam.
[16] = tested on: Aerobacter aerogenes MB-835; test: as above; format: cell-based; conditions: Klebsiella aerogenes, MB835; 182 μg/ml; read-out: Inhib. Zone Diam.
[17] = tested on: Erwinia atroseptica ATCC 4466; test: as above; format: cell-based; conditions: Pectobacterium atrosepticum, ATCC4466; 182 μg/ml; read-out: Inhib. Zone Diam.
[18] = tested on: Pseudomonas aeruginosa MB-2824; test: as above; format: cell-based; conditions: MB2824, 182 μg/ml, read-out: Inhib. Zone Diam.
[19] = tested on: Escherichia coli ATCC 9637; test: In vitro antibacterial spectrum profile, zone of inhibition, synthetic medium; format: cell-based; conditions: ATCC9637, 182 μg/ml, synthetic medium, read-out: Inhib. Zone Diam.
[20] = tested on: Streptococcus faecium MB-2820; test: In vitro antibacterial spectrum profile, zone of inhibition; format: cell-based; conditions: Enterococcus faecium, MB2820; 182 μg/ml; read-out: Inhib. Zone Diam.
[21] = tested on: Streptococcus agalactiae MB-2875; test: as above; format: cell-based; conditions: MB2875, 182 μg/ml, read-out: Inhib. Zone Diam.
[22] = tested on: Vibrio percolans resistant to ceph. C MB-2566; test: as above; format: cell-based; conditions: Comamonas terrigena, read-out: Inhib. Zone Diam.
[23] = tested on: Proteus vulgaris (episome) MB-2112; test: as above; format: cell-based; conditions: 182 μg/ml, read-out: Inhib. Zone Diam.
[24] = tested on: Proteus mirabilis MB-3126; test: as above; format: cell-based; conditions: MB3126, 182 μg/ml, read-out: Inhib. Zone Diam.
[25] = tested on: Vibrio percolans ATCC 8461 + 2 × 10^5 units/ml penicillinase; test: In vitro antibacterial spectrum profile, zone of inhibition, with penicillinase; format: cell-based; conditions: Comamonas terrigena, ATCC8461, 182 μg/ml, read-out: Inhib. Zone Diam.
penicillinase = test: Resistance to degradation by penicillinase; format: biochemical; conditions: compared with 890A1
Procedure: Bio-Gel fraction 63 is combined with fractions 61, 66 and 67 from the Bio-Gel column. These four combined fractions have a total of 235 absorbance units at 300 nm. To this is added 0.2 ml. of 1M Tris-HCl buffer, ph 7.5, and 0.2 ml. of penicillinase [Difco "Bacto-Penase," containing 500,000 units per ml. (1000 LU/ml.) wherein the term LU refers to Levy units; 1,000 LU will inactivate 500,000 units of penicillin G].
After 113 minutes at 23° C., an additional 0.2 ml. of penicillinase is added. After an additional 7 hours at room temperature, another 0.2 ml. of penicillinase is added, and after an additional two hours at room temperature, the reaction mixture is chilled in an ice bath. The terminated reaction mixture is diluted to 15 ml. by addition of 5 ml. of deionized water. The absorbance of the diluted reacted preparation is 6.3 at 300 nm of which 2.64 is extinguishable by reaction with cysteine.

Electrophoresis = format: physicochemical; conditions: neutral pH
[26] = tested on: Vibrio percolans ATCC 8461; test: Bioassay, agar plate disc-diffusion method; conditions: 890A1 value defined as standard

CC(=O)NCCSC1=C(C(=O)O)N2C(=O)C(C(C)O)C2C1 (centres unmarked) [Antibiotic 890A3]
zone of inhibition at 182 µg/mL [1]: 34 mm | zone of inhibition at 182 µg/mL (Bacillus sp. MB-633): 37 mm | zone of inhibition at 182 µg/mL [2]: 36 mm | zone of inhibition at 182 µg/mL [3]: 34 mm | zone of inhibition at 182 µg/mL (Proteus vulgaris MB-1012): 24 mm | zone of inhibition at 182 µg/mL [4]: 0 mm | zone of inhibition at 182 µg/mL [5]: 28 mm | zone of inhibition at 182 µg/mL [6]: 36 mm | zone of inhibition at 182 µg/mL [7]: 40 mm | zone of inhibition at 182 µg/mL (Sarcina lutea ATCC 9341): 44 mm | zone of inhibition at 182 µg/mL [8]: 34 mm | zone of inhibition at 182 µg/mL [9]: 17 mm | zone of inhibition at 182 µg/mL [10]: 27 mm | zone of inhibition at 182 µg/mL [11]: 33 mm | zone of inhibition at 182 µg/mL [12]: 40 mm | zone of inhibition at 182 µg/mL [13]: 26 mm | zone of inhibition at 182 µg/mL (Escherichia coli MB-1418): 32 mm | zone of inhibition at 182 µg/mL [14]: 32 mm | zone of inhibition at 182 µg/mL [15]: 33 mm | zone of inhibition at 182 µg/mL [16]: 30 mm | zone of inhibition at 182 µg/mL [17]: 30 mm | zone of inhibition at 182 µg/mL [18]: 32 mm | zone of inhibition at 182 µg/mL [19]: 29 mm | zone of inhibition at 182 µg/mL [20]: 24 mm | zone of inhibition at 182 µg/mL [21]: 30 mm | zone of inhibition at 182 µg/mL [22]: 34 mm | zone of inhibition at 182 µg/mL [23]: 38 mm | zone of inhibition at 182 µg/mL [24]: 30 mm | zone of inhibition at 182 µg/mL [25]: 35 mm | resistance to degradation by penicillinase (penicillinase): relatively higher resistance | movement on electrophoresis (Electrophoresis): acidic substance which moves to the positive pole on electrophoresis at neutral pH | antibiotic potency [26]: 31 units per HAEA300 unit

Reference: US4162324A, “Antibiotics 890A1 and 890A3” (Merck & Co., Inc., priority 1977, dated 1979)
